# Test results taken from US10099993B2, “Metabotropic glutamate receptor positive allosteric modulators (PAMS) and uses thereof” (Sanford-Burnham Medical Research Institute, priority 2014, dated 2018).
# Legend:
# [1] = target: mGlu2 (Rattus norvegicus (Rat), UniProt P31421); test: mGlu2 GIRK thallium flux assay; details: for EC50: read-out: mGlu2 PAM EC50, test compound, then EC20 glutamate […] later in the presence of thallium; for EC50 / mGlu2 PAM Max: PAM mode, mean ± SEM, at least three experiments; for Emax: read-out: mGlu2 PAM Max; for mGlu2 PAM Max: % Glutamate Max;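 for all read-outs here: Cell-based assay, rate of fluorescence rise right after thallium plus agonist addition read on a kinetic imaging plate reader, normalized to vehicle and maximal agonist control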
# [2] = target: mGlu3 (Rattus norvegicus (Rat), UniProt P31422); test: mGlu3 GIRK thallium flux assay; details: for EC50: read-out: mGlu3 PAM EC50, test compound, then EC20 glutamate […] later in the presence of thallium; for EC50 / mGlu3 PAM Max: PAM mode, mean ± SEM; for Emax: read-out: mGlu3 PAM Max; for mGlu3 PAM Max: % Glutamate Max;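 for all read-outs here: kinetic fluorescence slope read shortly after thallium plus agonist addition, scaled between vehicle and maximal agonist control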
# Sequence of mGlu3 (P31422 23-879): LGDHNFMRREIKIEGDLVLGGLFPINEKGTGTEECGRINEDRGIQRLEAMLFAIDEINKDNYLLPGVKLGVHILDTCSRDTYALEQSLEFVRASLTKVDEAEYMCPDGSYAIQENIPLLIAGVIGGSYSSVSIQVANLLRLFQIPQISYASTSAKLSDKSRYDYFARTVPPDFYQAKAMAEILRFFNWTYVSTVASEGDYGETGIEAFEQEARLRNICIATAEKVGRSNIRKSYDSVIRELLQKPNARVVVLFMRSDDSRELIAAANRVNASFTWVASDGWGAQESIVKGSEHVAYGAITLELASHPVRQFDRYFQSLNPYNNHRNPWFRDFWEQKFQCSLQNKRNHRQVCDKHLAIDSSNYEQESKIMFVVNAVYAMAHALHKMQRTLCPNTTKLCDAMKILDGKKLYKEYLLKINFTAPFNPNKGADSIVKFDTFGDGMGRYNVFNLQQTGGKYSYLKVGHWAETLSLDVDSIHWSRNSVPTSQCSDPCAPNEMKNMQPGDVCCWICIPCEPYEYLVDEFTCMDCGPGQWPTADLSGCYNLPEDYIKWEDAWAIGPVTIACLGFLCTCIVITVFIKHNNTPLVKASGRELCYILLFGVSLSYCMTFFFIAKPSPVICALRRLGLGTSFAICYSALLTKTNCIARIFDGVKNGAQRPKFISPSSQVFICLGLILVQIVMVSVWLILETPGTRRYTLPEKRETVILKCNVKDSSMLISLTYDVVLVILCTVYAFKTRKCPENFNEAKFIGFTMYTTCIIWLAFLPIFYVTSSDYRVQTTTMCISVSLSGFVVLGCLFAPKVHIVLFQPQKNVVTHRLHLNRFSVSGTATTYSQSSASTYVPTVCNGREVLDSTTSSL
# Sequence of mGlu2 (P31421 19-872): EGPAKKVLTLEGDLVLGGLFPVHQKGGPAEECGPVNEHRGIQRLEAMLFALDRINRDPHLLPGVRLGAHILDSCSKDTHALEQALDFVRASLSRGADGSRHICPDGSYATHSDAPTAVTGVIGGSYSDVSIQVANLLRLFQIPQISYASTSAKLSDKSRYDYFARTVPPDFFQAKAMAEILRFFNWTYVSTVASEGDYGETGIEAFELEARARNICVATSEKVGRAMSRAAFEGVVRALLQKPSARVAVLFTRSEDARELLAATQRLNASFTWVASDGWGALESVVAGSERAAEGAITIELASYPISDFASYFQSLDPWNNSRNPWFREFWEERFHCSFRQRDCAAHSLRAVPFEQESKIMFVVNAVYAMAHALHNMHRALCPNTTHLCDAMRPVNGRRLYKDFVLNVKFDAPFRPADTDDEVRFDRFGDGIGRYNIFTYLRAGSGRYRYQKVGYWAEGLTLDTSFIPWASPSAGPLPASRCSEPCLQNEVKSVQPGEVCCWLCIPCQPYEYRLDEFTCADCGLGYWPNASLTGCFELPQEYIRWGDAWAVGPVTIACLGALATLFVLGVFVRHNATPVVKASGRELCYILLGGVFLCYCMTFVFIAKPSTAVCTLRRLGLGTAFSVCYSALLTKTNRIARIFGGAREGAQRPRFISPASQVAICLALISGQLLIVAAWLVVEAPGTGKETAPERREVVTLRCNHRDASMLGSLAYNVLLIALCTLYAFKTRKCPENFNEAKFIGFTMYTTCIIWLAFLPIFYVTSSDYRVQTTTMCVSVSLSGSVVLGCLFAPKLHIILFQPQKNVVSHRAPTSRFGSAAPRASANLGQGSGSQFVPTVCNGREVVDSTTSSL
Compound,EC50 [1],Emax [1],EC50 [2],Emax [2],mGlu2 PAM Max [1],mGlu3 PAM Max [2]
"COc1ccc(/C(N)=N/O)cc1OCCCCOc1ccc(C(=O)CC(C)(C)C)c(O)c1C [compound 97, (Z)-3-(4-(4-(3,3-Dimethylbutanoyl)-3-hydroxy-2-methylphenoxy)butoxy)-N′-hydroxy-4-methoxybenzimidamide]",> 10000 nM,57.2 ± 1.4%,> 30000 nM,24.4 ± 4.7%,,
"COc1ccc(-c2noc(=O)[nH]2)cc1OCCCCOc1ccc(C(=O)CC(C)(C)C)c(O)c1C [compound 98, 3-(3-(4-(4-(3,3-Dimethylbutanoyl)-3-hydroxy-2-methylphenoxy)butoxy)-4-methoxyphenyl)-1,2,4-oxadiazol-5(4H)-one]",681 ± 90 nM,101 ± 2.9%,1230 ± 185 nM,102 ± 4.7%,,
"COc1ccc(-c2noc(=S)[nH]2)cc1OCCCCOc1ccc(C(=O)CC(C)(C)C)c(O)c1C [compound 99, 1-(2-Hydroxy-4-(4-(2-methoxy-5-(5-thioxo-4,5-dihydro-1,2,4-oxadiazol-3-yl)phenoxy)butoxy)-3-methylphenyl)-3,3-dimethylbutan-1-one]",1040 ± 70 nM,81%,1150 ± 307 nM,63.6 ± 5%,,
"COc1ccc(-c2nsc(=O)[nH]2)cc1OCCCCOc1ccc(C(=O)CC(C)(C)C)c(O)c1C [compound 100, 3-(3-(4-(4-(3,3-Dimethylbutanoyl)-3-hydroxy-2-methylphenoxy)butoxy)-4-methoxyphenyl)-1,2,4-thiadiazol-5(4H)-one]",2220 ± 709 nM,68.1 ± 0.9%,> 30000 nM,33.9 ± 10.1%,,
"COc1ccc(C(=O)N2CCOCC2)cc1OCCCCOc1ccc(C(=O)CC(C)(C)C)c(O)c1C [compound 101, 1-(2-Hydroxy-4-(4-(2-methoxy-5-(morpholine-4-carbonyl)phenoxy)butoxy)-3-methylphenyl)-3,3-dimethylbutan-1-one]",875 ± 3 nM,113 ± 1.2%,741 ± 6 nM,132 ± 5%,,
"CNC(=O)c1ccc(OC)c(OCCCCOc2ccc(C(=O)CC(C)(C)C)c(O)c2C)c1 [compound 102, 3-(4-(4-(3,3-Dimethylbutanoyl)-3-hydroxy-2-methylphenoxy)butoxy)-4-methoxy-N-methylbenzamide]",5160 ± 82 nM,70.9 ± 2.3%,> 10000 nM,39.2 ± 5.2%,,
"CCN(CC)C(=O)c1ccc(OC)c(OCCCCOc2ccc(C(=O)CC(C)(C)C)c(O)c2C)c1 [compound 103, 3-(4-(4-(3,3-Dimethylbutanoyl)-3-hydroxy-2-methylphenoxy)butoxy)-N,N-diethyl-4-methoxybenzamide]",608 ± 10 nM,96.4 ± 2.1%,497 ± 6 nM,111 ± 3.4%,,
"COc1ccc(C(=O)Nc2ccccc2)cc1OCCCCOc1ccc(C(=O)CC(C)(C)C)c(O)c1C [compound 104, 3-(4-(4-(3,3-Dimethylbutanoyl)-3-hydroxy-2-methylphenoxy)butoxy)-4-methoxy-N-phenylbenzamide]",,23.1 ± 1.4%,,27 ± 3.4%,,
"COc1ccc(C(=O)N2CCNCC2)cc1OCCCCOc1ccc(C(=O)CC(C)(C)C)c(O)c1C [compound 105, 1-(2-Hydroxy-4-(4-(2-methoxy-5-(piperazine-1-carbonyl)phenoxy)butoxy)-3-methylphenyl)-3,3-dimethylbutan-1-one]",> 10000 nM,67.4 ± 1.9%,> 10000 nM,49.7 ± 3.9%,,
"COc1ccc(C(=O)Nc2ccccn2)cc1OCCCCOc1ccc(C(=O)CC(C)(C)C)c(O)c1C [compound 106, 3-(4-(4-(3,3-Dimethylbutanoyl)-3-hydroxy-2-methylphenoxy)butoxy)-4-methoxy-N-(pyridin-2-yl)benzamide]",,74.8 ± 5.9%,,97.4 ± 9.4%,,
"COc1ccc(C(=O)N2CCN(S(C)(=O)=O)CC2)cc1OCCCCOc1ccc(C(=O)CC(C)(C)C)c(O)c1C [compound 107, 1-{2-Hydroxy-4-[4-(2-methoxy-5-{[4-(methylsulfonyl)piperazinyl]carbonyl}phenoxy)butoxy]-3-methylphenyl}-3,3-dimethylbutan-1-one]",> 30000 nM,,> 30000 nM,,22.1 ± 1.1%,22.9 ± 1.5%
"COc1ccc(C(=O)NC(C)(C)C)cc1OCCCCOc1ccc(C(=O)CC(C)(C)C)c(O)c1C [compound 108, N-(tert-Butyl)-3-(4-(4-(3,3-dimethylbutanoyl)-3-hydroxy-2-methylphenoxy)butoxy)-4-methoxybenzamide]",> 10000 nM,38.6 ± 1.1%,> 30000 nM,33.4 ± 5.3%,,
"COc1ccc(C(=O)NC2CC2)cc1OCCCCOc1ccc(C(=O)CC(C)(C)C)c(O)c1C [compound 109, N-Cyclopropyl-3-(4-(4-(3,3-dimethylbutanoyl)-3-hydroxy-2-methylphenoxy)butoxy)-4-methoxybenzamide]",765 ± 5 nM,101.5 ± 0.9%,578 ± 12 nM,106 ± 5.1%,,
"COc1ccc(C(=O)NCC(C)C)cc1OCCCCOc1ccc(C(=O)CC(C)(C)C)c(O)c1C [compound 110, 3-(4-(4-(3,3-Dimethylbutanoyl)-3-hydroxy-2-methylphenoxy)butoxy)-N-isobutyl-4-methoxybenzamide]",6400 ± 389 nM,48.4 ± 5.5%,> 30000 nM,31.7 ± 8.5%,,
Cc1c(OCCCCOc2ccc(CCC(=O)O)c(O)c2)ccc(C(=O)CC(C)C)c1C [compound 111],> 10000 nM,,> 30000 nM,,,
"COc1ccc(C(=O)NC2CCCC2)cc1OCCCCOc1ccc(C(=O)CC(C)(C)C)c(O)c1C [compound 112, N-Cyclopentyl-3-(4-(4-(3,3-dimethylbutanoyl)-3-hydroxy-2-methylphenoxy)butoxy)-4-methoxybenzamide]",> 10000 nM,35 ± 5.8%,> 30000 nM,40.3 ± 1.6%,,

Compound,EC50 [1],Emax [1],EC50 [2],Emax [2],mGlu2 PAM Max [1],mGlu3 PAM Max [2]
"COc1ccc(C(=O)NS(=O)(=O)c2ccccc2)cc1OCCCCOc1ccc(C(=O)CC(C)(C)C)c(O)c1C [compound 113, 3-(4-(4-(3,3-Dimethylbutanoyl)-3-hydroxy-2-methylphenoxy)butoxy)-4-methoxy-N-(phenylsulfonyl)benzamide]",872 ± 4 nM,102 ± 2.9%,1080 ± 21 nM,109 ± 3.5%,,
Cc1c(OCc2cccc(COc3ccc(C#N)cc3)c2)ccc(C(=O)CC(C)C)c1C [compound 115],> 30000 nM,,> 30000 nM,,,
COC(=O)c1ccc(OCc2cccc(COc3ccc(C(=O)CC(C)C)c(C)c3C)c2)cc1 [compound 116],> 30000 nM,,> 30000 nM,,,
Cc1c(OCc2cccc(COc3ccc(C#N)cc3)c2)ccc(C(=O)CC(C)C)c1O [compound 118],> 30000 nM,,> 30000 nM,,,
COC(=O)c1ccc(OCc2cccc(COc3ccc(C(=O)CC(C)C)c(O)c3C)c2)cc1 [compound 119],> 30000 nM,,> 30000 nM,,,
Cc1c(OCc2cccc(COc3ccc(C(=O)O)cc3)c2)ccc(C(=O)CC(C)C)c1C [compound 123],> 30000 nM,,> 30000 nM,,,
Cc1c(OCc2cccc(COc3ccc(C(=O)O)cc3)c2)ccc(C(=O)CC2CCCC2)c1C [compound 124],> 30000 nM,,> 30000 nM,,,
Cc1c(OCc2cccc(COc3ccc(C(=O)O)cc3)c2)ccc(C(=O)CC(C)C)c1O [compound 125],238 ± 51 nM,,> 30000 nM,,82.7 ± 7.2%,13.9 ± 3.1%
Cc1c(OCc2cccc(COc3ccc(C(=O)O)cc3)c2)ccc(C(=O)CC2CCCC2)c1O [compound 126],> 10000 nM,,> 30000 nM,,,
"Cc1c(OCc2cccc(-c3cccc(C(=O)O)c3)c2)ccc(C(=O)CC(C)(C)C)c1O [compound 127, 3′-((4-(3,3-Dimethylbutanoyl)-3-hydroxy-2-methylphenoxy)methyl)-[1,1′-biphenyl]-3-carboxylic acid]",219 ± 43 nM,91.1 ± 2.6%,343 ± 40 nM,104 ± 2.4%,,
"CC(=O)c1ccc(OCc2cccc(-c3cccc(C(=O)O)c3)c2)c(C)c1O [compound 128, 3′-((4-Acetyl-3-hydroxy-2-methylphenoxy)methyl)-[1,1′-biphenyl]-3-carboxylic acid]",35 ± 13 nM,57.9 ± 6.6%,1290 ± 781 nM,67.8 ± 8.7%,,
"Cc1c(OCc2cccc(-c3cccc(C(=O)O)c3)c2)ccc(C(=O)CC2CCCC2)c1O [compound 129, 3′-((4-(2-Cyclopentylacetyl)-3-hydroxy-2-methylphenoxy)methyl)-[1,1′-biphenyl]-3-carboxylic acid]",616 ± 217 nM,97.5 ± 9%,3560 ± 1940 nM,94 ± 10.1%,,
"CCCC(=O)c1ccc(OCc2cccc(-c3cccc(C(=O)O)c3)c2)c(C)c1O [compound 130, 3′-((4-Butyryl-3-hydroxy-2-methylphenoxy)methyl)-[1,1′-biphenyl]-3-carboxylic acid]",142 ± 29 nM,92.9 ± 10.7%,1680 ± 753 nM,81 ± 14.8%,,
"Cc1c(OCc2cccc(-c3cccc(C(=O)O)c3)c2)ccc(C(=O)C(C)C)c1O [compound 131, 3′-((3-Hydroxy-4-isobutyryl-2-methylphenoxy)methyl)-[1,1′-biphenyl]-3-carboxylic acid]",222 ± 82 nM,83.2 ± 12.3%,1750 ± 891 nM,55 ± 24.4%,,
"Cc1c(OCc2cccc(-c3ccc(C(=O)O)cc3)c2)ccc(C(=O)CC(C)(C)C)c1O [compound 132, 3′-((4-(3,3-Dimethylbutanoyl)-3-hydroxy-2-methylphenoxy)methyl)-[1,1′-biphenyl]-4-carboxylic acid]",561 ± 63 nM,90.5 ± 13.8%,1640 ± 487 nM,57.5 ± 20.9%,,
"Cc1c(OCc2cccc(-c3ccc(Cl)c(C(=O)O)c3)c2)ccc(C(=O)CC(C)(C)C)c1O [compound 133, 4-Chloro-3′-((4-(3,3-dimethylbutanoyl)-3-hydroxy-2-methylphenoxy)methyl)-[1,1′-biphenyl]-3-carboxylic acid]",433 ± 99 nM,90.2 ± 4.1%,1710 ± 888 nM,70.9 ± 3.6%,,
